We go through three compounds from patent US4224316A, “Synthetic peptides having pituitary growth hormone releasing activity” (Beckman Instruments, Inc., priority 1979, dated 1980).

Structures are written as SMILES. Square brackets hold non-standard residues; d marks the D form. Peptide text beside a SMILES is read from it.

The test system of this assay is pituitaries removed from 20 day old female rats. Kind of assay: In vitro growth hormone release study (incubated rat pituitaries, GH radioimmunoassay of the medium). Type of assay: cell-based. The conditions noted are these: mean ± SEM, two pituitaries in 1 ml lactated Ringer's solution, 36° C., peptide added hourly for 2 hours. The procedure: Female rats of the CD-l strain were housed in a constant temperature room at 24° C. with 14 hours light and 10 hours darkness. The rats were fed Purina brand rat chow ab libitum.
All studies were started between 0800 and 1000 hours.
Pituitaries were removed from 20 day old female rats. Two pituitaries were incubated at 36° C. in 1 ml of lactated Ringer's solution in 10 ml polytetrafluoroethylene beakers in a Dubnoff Shaker (90 cycles/min.). The pituitaries were incubated a total of 4 hours (P1, P2, I3, and I4). After two successive one hour preincubation periods (P1, P2), the peptide was added to the incubation medium hourly for 2 hours (I3, I4).
This in vitro study was performed in triplicate and a standard radioimmunoassay of growth hormone present in the incubation medium was performed in duplicate. The hormonal activity was calculated as the difference (Δ) of growth hormone (GH) levels between I3, I4 and P2, i.e., (I3 -P2) and (I4 -P2). P values were calculated by Students' t test using six growth hormone values for each value recorded.
The growth hormone radioimmunoassay reagents were distributed by the National Institute of Arthritis and […] (NIAMDD) program. The growth hormone values were calculated in terms of nanograms (ng) of a rat standard with a growth hormone potency of 0.61 units/mg.

`CSCC[C@H](NC(=O)[C@H](Cc1ccccc1)NC(=O)[C@@H](Cc1ccccc1)NC(=O)[C@H](Cc1c[nH]c2ccccc12)NC(=O)[C@H](N)Cc1ccccc1)C(N)=O` [H2 N-D-Phe-Trp-D-Phe-Phe-Met-CONH2] (H-[dF]W[dF]FM-NH2): the “In vitro growth hormone release (ΔGH between I3, I4 and P2)” value by setting is: (10μg peptide) 1469 ± 153 ng.increment.GH/ml incubation; (100μg peptide) 1483 ± 168 ng.increment.GH/ml incubation.

In the case of `CSCC[C@H](NC(=O)[C@H](Cc1ccccc1)NC(=O)[C@@H](Cc1c[nH]c2ccccc12)NC(=O)[C@H](Cc1ccccc1)NC(=O)[C@H](N)Cc1ccccc1)C(N)=O` [H2 N-D-Phe-Phe-D-Trp-Phe-Met-CONH2] (H-[dF]F[dW]FM-NH2), the “In vitro growth hormone release (ΔGH between I3, I4 and P2)” value is, setting by setting: (1μg peptide) 130 ± 143 ng.increment.GH/ml incubation; (10μg peptide) 955 ± 248 ng.increment.GH/ml incubation; (100μg peptide) 1060 ± 469 ng.increment.GH/ml incubation.

As to `NCCCC[C@H](NC(=O)[C@H](Cc1ccccc1)NC(=O)[C@@H](Cc1ccccc1)NC(=O)[C@H](Cc1c[nH]c2ccccc12)NC(=O)[C@H](N)Cc1ccccc1)C(N)=O` [H2 N-D-Phe-Trp-D-Phe-Phe-Lys-CONH2] (H-[dF]W[dF]FK-NH2), the “In vitro growth hormone release (ΔGH between I3, I4 and P2)” value is given as -109 ± 101 ng.increment.GH/ml incubation (1μg peptide), 888 ± 120 ng.increment.GH/ml incubation (10μg peptide) and 963 ± 96 ng.increment.GH/ml incubation (100μg peptide).
